Key:
Format in all cases: cell-based, human
[1] = test system: DFF-purified neutrophils rolling on E-selectin; assay: Microfluidic neutrophil rolling assay on E-selectin-coated microchannel; details: for Neutrophil rolling speed on E-selectin: DFF-sorted neutrophils treated with glucose 30 mM, TNF-α 10 ng/mL or PMA 1 μM, shear 2 dynecm^−2, compared with healthy neutrophils, P<0.005
Source text: In another aspect, the present invention also relates to a microfluidic flow channel, wherein its inner wall is coated with E-selectin. Such channel may have a length of at least 0.1 cm. Preferably, the channel has a length of 0.5-2 cm. The width may be at least 200 μm, preferably between 350-500 μm. The channel height may be at least 40 μm, preferably between 45-75 μm and more preferably the height is 60 μm. An example to determine the rolling speed by using an E-selectin coated channel is given below. Briefly, a straight microchannel (1 cm length by 400 μm width by 60 μm height) can be coated with E-selectin (50 μg/mL, Peprotech) for 1 h at 4° C. and blocked with 0.5% BSA in PBS for 30 min at room temperature. After blocking, the channel can be connected to a syringe loaded with 0.1% BSA in PBS to prime and wash away excess E-selectin in the channel. For rolling assay, CaCl2 (20 μM, Sigma-Aldrich) can be added to the DFF-purified neutrophils to facilitate the calcium-dependent interactions of neutrophil binding and rolling on E-selectin. ˜10-20 μL of DFF-purified neutrophils (˜10^6 cells/mL) can be loaded at the inlet reservoir and the syringe can be set to withdraw at 2.6 μL/min (˜2 dynecm^−2) to initiate neutrophil rolling. Phase contrast image can be captured for 30 s at the centre of the microchannel every 0.5 s interval (total of 61 frames) at 20× magnification using MetaMorph software (Molecular Devices). […] The neutrophils can then be washed at 1000×g for 4 min and resuspended to a concentration of ˜10^6 cells/mL with 20 μM CaCl2 for rolling assay.
To study neutrophil rolling phenotype on E-selectin, a straight microchannel (1 cm (l)×400 μm (w)×60 μm (h)) with recombinant human E-selectin (50 μg/mL) was coated to simulate flow conditions in post capillary venules (˜1-10 dynecm^−2). DFF-sorted neutrophils were pumped into the channel at physiological shear conditions (2 dynecm^−2) and timelapse imaging was used to capture neutrophil rolling. A MATLAB tracking algorithm was developed to track neutrophil rolling trajectories and speed measurement for high throughput single cell analysis. […] These differences in rolling phenotypes were further investigated by measuring neutrophil PSGL-1 expression, which is known to mediate leukocyte rolling on E-selectin, as well as CD11b, a Mac-1 integrin expressed on leukocytes that supports adhesion to E-selectin.
After having established that neutrophils from T2DM patients rolled faster on E-selectin as compared to healthy subjects, it was determined if these functional differences can be associated to clinical conditions by analyzing rolling speed frequencies in T2DM patients that are higher than the average rolling speed of healthy subjects (≥5 μm/sec). […]

[2] = test system: PSGL-1 expression on neutrophils; assay: Flow cytometric analysis of PSGL-1 expression on healthy and treated neutrophils; details: glucose 30 mM, TNF-α 10 ng/mL or PMA 1 μM treated vs healthy neutrophils; flow cytometry
Procedure: (§1) (A) Image overlay (60× magnification) from captured cell rolling videos highlight distinct differences in rolling trajectories between healthy and TNF-α-treated neutrophils. (B) Cumulative frequency curves of neutrophil rolling speed for healthy, glucose-treated (30 mM), TNF-α-treated (10 ng/mL) and PMA-treated (1 μM) neutrophils. […] Flow cytometric analysis of (C) PSGL-1 and (D) CD11b expression on healthy and treated neutrophils. Cells were incubated with mouse APC anti-human PSGL-1 IgG2a/mouse APC IgG2a isotype and FITC mouse anti-human CD11b (activated) IgG1/FITC mouse IgG1 isotype.
(§2) To study neutrophil rolling phenotype on E-selectin, a straight microchannel (1 cm (l)×400 μm (w)×60 μm (h)) with recombinant human E-selectin (50 μg/mL) was coated to simulate flow conditions in post capillary venules (˜1-10 dynecm^−2). DFF-sorted neutrophils were pumped into the channel at physiological shear conditions (2 dynecm^−2) and timelapse imaging was used to capture neutrophil rolling. A MATLAB tracking algorithm was developed to track neutrophil rolling trajectories and speed measurement for high throughput single cell analysis. […]

[3] = test system: CD11b expression on neutrophils; assay: Flow cytometric analysis of CD11b expression on healthy and treated neutrophils; details: glucose 30 mM, TNF-α 10 ng/mL or PMA 1 μM treated vs healthy neutrophils; flow cytometry
Procedure: as §1, §2

CN(C)C(=N)N=C(N)N [metformin]
Average rolling speed of drug-treated neutrophils ([1]; DFF-purified neutrophils of healthy subjects incubated with metformin 1 mM or pravastatin 20 μM for 1 h, vs untreated controls, all paired observations, P<0.05): higher than controls

tumor necrosis factor alpha [TNF-α]
Neutrophil rolling speed on E-selectin [1]: higher than healthy neutrophils
Neutrophil rolling trajectories on E-selectin ([1]; TNF-α-activated neutrophils vs healthy neutrophils (steady rolling in a straight path)): discontinuous with “flipping” motions
PSGL-1 expression on neutrophils [2]: decreased

CCCCCCCCCCCCCC(=O)O[C@@H]1[C@@H](C)[C@@]2(O)[C@@H](C=C(CO)C[C@]3(O)C(=O)C(C)=C[C@@H]23)[C@@H]2C(C)(C)[C@]12OC(C)=O [PMA]
Neutrophil rolling speed on E-selectin [1]: did not roll, but instead adhered firmly on E-selectin
PSGL-1 expression on neutrophils [2]: downregulation was more significant
Neutrophil CD11b level [3]: higher increase

Reference: US10894255B2, “Leukocyte and microparticles fractionation using microfluidics” (Nanyang Technological University, priority 2015, dated 2021)
